One substance from article PMC12735834, “Novel Trinorditerpene from Dysoxylum parasiticum (Osbeck) Kosterm: Leaf Extract with Cytotoxic, Antioxidant and α-Glucosidase Inhibitory Activities” (Molecules, 2025) can be followed below.

In the assay the target is α-glucosidase. Briefly: colorimetric p-NPG hydrolysis assay, […] nm, triplicate. Format: biochemical, Saccharomyces cerevisiae.

Regarding “12-(3-carboxyfuran-2-yl)-trinorlabda-5,9-dien-15-oic acid [parasitic acid]”, the 50% inhibitory concentration (IC50) (as a rule, the point on the concentration scale where inhibition reaches its midpoint) was 36.29 ± 1.06 µg/mL.
